{
  "source": "patent US8546338B2",
  "about": "“Self-assembling hydrogels based on dicephalic peptide amphiphiles” (Johnson & Johnson Consumer Companies, Inc., priority 2010, dated 2013)",
  "experiment": "Gelation experiments: inversion test for self-supporting hydrogels",
  "assay_type": "physicochemical",
  "settings": "for Gelation under all conditions tested: 2-4 wt %, water, DMEM and DMEM plus calcium; for Gelation under all conditions tested / Gelation (self-supporting gel on inversion), PBS: PBS; for Gelation (self-supporting gel on inversion), Calcium added: DMEM plus 10 μl of 100 mg/cc calcium chloride solution; for Gelation (self-supporting gel on inversion), DMEM: DPA solution in water mixed 1:1 with DMEM; for Gelation (self-supporting gel on inversion), DMEM / Concentration at which gel forms, DMEM: no calcium added; for Gelation (self-supporting gel on inversion), PBS / Gelation (self-supporting gel on inversion), Water: final concentrations 1, 2 and 4 weight percent tested; for Gelation (self-supporting gel on inversion), Water: in water; for Concentration at which gel forms, Calcium added: DMEM with calcium chloride added; for Concentration at which gel forms, DMEM: mixed with DMEM",
  "protocol": "Inversion tests were performed to determine qualitatively under which conditions the various DPAs formed self-supporting hydrogels. The various types of DPAs were tested by dissolving them in ultrapure water (>18 MΩ resistivity) at double the desired final concentration followed by mixing in a 1:1 ratio with different liquid mediums. Gelation was deemed to have occurred if the gel supported its own weight upon inverting the vial (FIG. 3A and FIG. 3B). Gelation was tested at final concentrations of 1, 2 and 4 weight percent. We tested phosphate buffered saline (PBS), and Dulbecco's modified eagle media (DMEM) as liquid medium. Typical scale is 100 μl each of DPA solution in water and mixing medium but other scales have been tested. Finally, if no spontaneous gelation occurs, 10 μl of 100 mg/cc calcium chloride solution was added to induce gelation.",
  "key": {"[1]": {"settings": "listed as linear peptide amphiphile analogue"}},
  "note": "Where a SMILES comes first, the peptide text is derived from it. Where no end group is shown, it is not given here. The star is where a group is joined. Palmitoyl = CCCCCCCCCCCCCCCC(=O)*",
  "data": [
    {"molecule": "GFGFGFGQQS-OH [Gly-Phe-Gly-Phe-Gly-Phe-Gly-Gln-Gln-Ser, reference compound]", "values": [
      {"measurement": "Gelation under all conditions tested", "result": "did not form any gels"},
      {"measurement": "Gelation (self-supporting gel on inversion), Calcium added", "result": "No"},
      {"measurement": "Gelation (self-supporting gel on inversion), DMEM", "result": "No"},
      {"measurement": "Gelation (self-supporting gel on inversion), PBS", "result": "No"},
      {"measurement": "Gelation (self-supporting gel on inversion), Water", "result": "No"}
    ]},
    {"molecule": "CCCCCCCCCCCCCCCC(=O)NC(C(=O)NCC(=O)N[C@@H](Cc1c[nH]c2ccccc12)C(=O)NCC(=O)N[C@@H](Cc1c[nH]c2ccccc12)C(=O)NCC(=O)N[C@@H](Cc1c[nH]c2ccccc12)C(=O)NCC(=O)N[C@@H](CCC(N)=O)C(=O)N[C@@H](CCC(N)=O)C(=O)N[C@@H](CO)C(=O)O)C(=O)NCC(=O)N[C@@H](Cc1c[nH]c2ccccc12)C(=O)NCC(=O)N[C@@H](Cc1c[nH]c2ccccc12)C(=O)NCC(=O)N[C@@H](Cc1c[nH]c2ccccc12)C(=O)NCC(=O)N[C@@H](CCC(N)=O)C(=O)N[C@@H](CCC(N)=O)C(=O)N[C@@H](CO)C(=O)O", "note": "[Gly-Trp-Gly-Trp-Gly-Trp-Gly-Gln-Gln-Ser]", "values": [
      {"measurement": "Gelation under all conditions tested", "result": "no gelation was observed"},
      {"measurement": "Gelation (self-supporting gel on inversion), Calcium added", "result": "No"},
      {"measurement": "Gelation (self-supporting gel on inversion), DMEM", "result": "No"},
      {"measurement": "Gelation (self-supporting gel on inversion), PBS", "result": "No"},
      {"measurement": "Gelation (self-supporting gel on inversion), Water", "result": "No"}
    ]},
    {"molecule": "CCCCCCCCCCCCCCCC(=O)NC(C(=O)NCC(=O)N[C@@H](Cc1ccc(O)cc1)C(=O)NCC(=O)N[C@@H](Cc1ccc(O)cc1)C(=O)NCC(=O)N[C@@H](Cc1ccc(O)cc1)C(=O)NCC(=O)N[C@@H](CCC(N)=O)C(=O)N[C@@H](CCC(N)=O)C(=O)N[C@@H](CO)C(=O)O)C(=O)NCC(=O)N[C@@H](Cc1ccc(O)cc1)C(=O)NCC(=O)N[C@@H](Cc1ccc(O)cc1)C(=O)NCC(=O)N[C@@H](Cc1ccc(O)cc1)C(=O)NCC(=O)N[C@@H](CCC(N)=O)C(=O)N[C@@H](CCC(N)=O)C(=O)N[C@@H](CO)C(=O)O", "note": "[Gly-Tyr-Gly-Tyr-Gly-Tyr-Gly-Gln-Gln-Ser]", "values": [
      {"measurement": "Gelation (self-supporting gel on inversion), Calcium added", "result": "does form gels and Yes"},
      {"measurement": "Concentration at which gel forms, Calcium added", "result": 2, "unit": "%"},
      {"measurement": "Gelation (self-supporting gel on inversion), DMEM", "result": "does not gel and No"},
      {"measurement": "Gelation (self-supporting gel on inversion), PBS", "result": "does not gel and No"},
      {"measurement": "Gelation (self-supporting gel on inversion), Water", "result": "does not gel and No"}
    ]},
    {"molecule": "CCCCCCCCCCCCCCCC(=O)NCC(=O)N[C@@H](Cc1ccccc1)C(=O)NCC(=O)N[C@@H](Cc1ccccc1)C(=O)NCC(=O)N[C@@H](Cc1ccccc1)C(=O)NCC(=O)N[C@@H](CCC(N)=O)C(=O)N[C@@H](CCC(N)=O)C(=O)N[C@@H](CO)C(=O)O", "note": "[reference compound] (Palmitoyl-GFGFGFGQQS-OH)", "values": [
      {"measurement": "Gelation (self-supporting gel on inversion), Calcium added", "result": "Yes,"},
      {"measurement": "Gelation (self-supporting gel on inversion), Calcium added", "setting": "[1]", "result": "could be gelled"},
      {"measurement": "Concentration at which gel forms, Calcium added", "result": 2, "unit": "%"},
      {"measurement": "Gelation (self-supporting gel on inversion), DMEM", "result": "No"},
      {"measurement": "Gelation (self-supporting gel on inversion), DMEM", "setting": "[1]", "result": "did not form gels"},
      {"measurement": "Gelation (self-supporting gel on inversion), PBS", "result": "No"},
      {"measurement": "Gelation (self-supporting gel on inversion), PBS", "setting": "[1]", "result": "did not form gels"},
      {"measurement": "Gelation (self-supporting gel on inversion), Water", "result": "No"},
      {"measurement": "Gelation (self-supporting gel on inversion), Water", "setting": "[1]", "result": "did not form gels"}
    ]},
    {"molecule": "CCCCCCCCCCCCCCCC(=O)NC(C(=O)NCC(=O)N[C@@H](Cc1ccccc1)C(=O)NCC(=O)N[C@@H](Cc1ccccc1)C(=O)NCC(=O)N[C@@H](Cc1ccccc1)C(=O)NCC(=O)N[C@@H](CC(N)=O)C(=O)NCC(=O)N[C@@H](CO)C(=O)O)C(=O)NCC(=O)N[C@@H](Cc1ccccc1)C(=O)NCC(=O)N[C@@H](Cc1ccccc1)C(=O)NCC(=O)N[C@@H](Cc1ccccc1)C(=O)NCC(=O)N[C@@H](CC(N)=O)C(=O)NCC(=O)N[C@@H](CO)C(=O)O", "note": "[Gly-Phe-Gly-Phe-Gly-Phe-Gly-Asn-Gly-Ser]", "values": [
      {"measurement": "Gelation (self-supporting gel on inversion), DMEM", "result": "Yes,"},
      {"measurement": "Gelation (self-supporting gel on inversion), PBS", "result": "No"},
      {"measurement": "Gelation (self-supporting gel on inversion), Water", "result": "No"},
      {"measurement": "Concentration at which gel forms, DMEM", "result": 2, "unit": "%"}
    ]},
    {"molecule": "CCCCCCCCCCCCCCCC(=O)NC(C(=O)NCC(=O)N[C@@H](Cc1ccccc1)C(=O)NCC(=O)N[C@@H](Cc1ccccc1)C(=O)NCC(=O)N[C@@H](Cc1ccccc1)C(=O)NCC(=O)NCC(=O)N[C@@H](CC(N)=O)C(=O)N[C@@H](CO)C(=O)O)C(=O)NCC(=O)N[C@@H](Cc1ccccc1)C(=O)NCC(=O)N[C@@H](Cc1ccccc1)C(=O)NCC(=O)N[C@@H](Cc1ccccc1)C(=O)NCC(=O)NCC(=O)N[C@@H](CC(N)=O)C(=O)N[C@@H](CO)C(=O)O", "note": "[Gly-Phe-Gly-Phe-Gly-Phe-Gly-Gly-Asn-Ser]", "values": [
      {"measurement": "Gelation (self-supporting gel on inversion), DMEM", "result": "Yes,"},
      {"measurement": "Gelation (self-supporting gel on inversion), PBS", "result": "No"},
      {"measurement": "Gelation (self-supporting gel on inversion), Water", "result": "No"},
      {"measurement": "Concentration at which gel forms, DMEM", "result": 2, "unit": "%"}
    ]},
    {"molecule": "CCCCCCCCCCCCCCCC(=O)NC(C(=O)NCC(=O)N[C@@H](Cc1ccccc1)C(=O)NCC(=O)N[C@@H](Cc1ccccc1)C(=O)NCC(=O)N[C@@H](Cc1ccccc1)C(=O)NCC(=O)NCC(=O)N[C@@H](CCC(N)=O)C(=O)N[C@@H](CO)C(=O)O)C(=O)NCC(=O)N[C@@H](Cc1ccccc1)C(=O)NCC(=O)N[C@@H](Cc1ccccc1)C(=O)NCC(=O)N[C@@H](Cc1ccccc1)C(=O)NCC(=O)NCC(=O)N[C@@H](CCC(N)=O)C(=O)N[C@@H](CO)C(=O)O", "note": "[Gly-Phe-Gly-Phe-Gly-Phe-Gly-Gly-Gln-Ser]", "values": [
      {"measurement": "Gelation (self-supporting gel on inversion), DMEM", "result": "Yes,"},
      {"measurement": "Gelation (self-supporting gel on inversion), PBS", "result": "No"},
      {"measurement": "Gelation (self-supporting gel on inversion), Water", "result": "No"},
      {"measurement": "Concentration at which gel forms, DMEM", "result": 2, "unit": "%"}
    ]}
  ]
}
